Marks after values point to notes of the source that are not given here.
Columns and labels:
rats [1] = experiment: Genetic toxicity in vivo (rats); set-up: species or system rat; details: in vivo OECD TG 478 overriding in vitro OECD TG 473
Wistar rats [2] = experiment: Reproductive toxicity screening combined with 28-day repeated dose toxicity study (OECD TG 422); assay type: in vivo, rat; details: for NOAEL, reproductive toxicity: OECD 422 v 2016, oral gavage
Excerpt: (§1) Healthy and specific pathogen-free male and female (non-pregnant and nulliparous) Wistar Crl: WI(Han) rats were obtained from Charles River Laboratories (Germany). […] Upon arrival at BSL BIOSERVICE, the animals underwent an acclimatisation period of at least 5 days, and they were approximately 15–16 weeks old at the onset of the treatment period.

oestrogen receptors = test system: oestrogen receptors; set-up: method as in Byford et al. 2002; details: ref Byford et al. 2002; cited from earlier work
mammalian cells = details: OECD 473 or 487; ref ECHA dissemination portal; cited from earlier work
[3] = Octanol–water partition coefficient (Log Kow); assay type: physicochemical; details: mean; OECD TG 107 and OECD TG 117
Excerpt: Generally, these parabens have very similar physico-chemical properties.

Wistar rats [4] = experiment: Prenatal developmental toxicity study (OECD TG 414); assay type: in vivo, rat; details: for NOAEL, developmental toxicity: OECD 414 v 2001, oral gavage
Excerpt: as §1

Wistar rats [5] = experiment: Reproductive toxicity screening study (OECD TG 421); assay type: in vivo, rat; details: for NOAEL, reproductive toxicity: OECD 421 v 2016 oral gavage (& historical OECD 422 feeding study)
Protocol: Healthy and specific pathogen-free male and female (non-pregnant and nulliparous) Wistar Crl: WI(Han) rats were obtained from Charles River Laboratories (Germany). The animals were housed in an air-conditioned room (temperature: 22 ± 3 °C; relative humidity: 55 ± 10%; artificial light, light–dark cycle: 12 h–12 h; air change: 10 times/h). Housing was in groups of 5 animals/sex/cage in individually ventilated Type IV polysulphone cages on Altromin saw fibre bedding with free access to both Altromin 1324 maintenance diet for rats and mice and tap water. Upon arrival at BSL BIOSERVICE, the animals underwent an acclimatisation period of at least 5 days, and they were approximately 15–16 weeks old at the onset of the treatment period. […]

rats [6] = details: acute oral, rats, OECD 401; ref ECHA dissemination portal; cited from earlier work
rats [7] = details: key studies Gazin et al. 2013, Pouliot 2013; ref SCCS 2013; EMA 2015; cited from earlier work

SMILES: COC(=O)c1ccc(O)cc1 [Methyl paraben, Methyl 4-hydroxybenzoate]
- Overall WoE conclusion on genotoxicity (rats [1]): [d] While methyl paraben exhibited in vitro clastogenicity with metabolic activation in an OECD TG 473 study, absence of in vivo clastogenicity in an OECD TG 478 study is overriding in the WoE evaluation so that the overall WoE conclusion is absence of genotoxicity
- NOAEL, reproductive toxicity (Wistar rats [2]): NOAEL: 1000 (OECD 422; v 2016) mg/kg body weight/day
- NOAEL, reproductive toxicity (Wistar rats [2]; listed as methyl paraben): 1000 mg/kg body weight/day
- Treatment-related effects in parental animals or pups (Wistar rats [2]; OECD TG 422): no treatment-related effects
- Adrenals HP (Wistar rats [2]; P0, F1): NAE / NAE
- Adrenals weight (Wistar rats [2]; P0, F1): NAE / NAE
- Brain weight (Wistar rats [2]; P0, F1): NAE / NAE
- Coagulating gland HP (Wistar rats [2]; P0, F1): NAE / NAE
- Epididymis HP (Wistar rats [2]; P0, F1): NAE / NAE
- Epididymis weight (Wistar rats [2]; P0, F1): NAE / NAE
- Fertility (Wistar rats [2]; P0, F1): NAE / NAE
- Foetal development (Wistar rats [2]; P0, F1): NAE / NAE
- Gestation length (Wistar rats [2]; P0, F1): NAE / NAE
- Litter size (Wistar rats [2]; P0, F1): NAE / NAE
- Litter viability (Wistar rats [2]; P0, F1): NAE / NAE
- Liver weight (Wistar rats [2]; P0, F1): NAE / NAE
- Mammary gland HP; males (Wistar rats [2]; P0, F1): NAE / NAE
- Nipple development (Wistar rats [2]; P0, F1): NAE / NAE
- No. of implantations, corpora lutea (Wistar rats [2]; P0, F1): NAE / NAE
- No. of live births (Wistar rats [2]; P0, F1): NAE / NAE
- Oestrus cyclicity (Wistar rats [2]; P0, F1): NAE / NAE
- Ovary HP (Wistar rats [2]; P0, F1): NAE / NAE
- Ovary weight (Wistar rats [2]; P0, F1): NAE / NAE
- Postimplantation loss (Wistar rats [2]; P0, F1): NAE / NAE
- Pre-implantation loss (Wistar rats [2]; P0, F1): NAE / NAE
- Presence of anomalies (external, visceral, skeletal) (Wistar rats [2]; P0, F1): NAE / NAE
- Prostate HP (Wistar rats [2]; P0, F1): NAE / NAE
- Prostate weight (Wistar rats [2]; P0, F1): NAE / NAE
- Reproduction (Wistar rats [2]; P0, F1): NAE / NAE
- Seminal vesicles HP (Wistar rats [2]; P0, F1): NAE / NAE
- Seminal vesicles weight (Wistar rats [2]; P0, F1): NAE / NAE
- Testis HP (Wistar rats [2]; P0, F1): NAE / NAE
- Testis weight (Wistar rats [2]; P0, F1): NAE / NAE
- Thyroid stimulating hormone level (Wistar rats [2]; P0, F1): NAE / NAE
- Time to mating (Wistar rats [2]; P0, F1): NAE / NAE
- Triiodothyronine / thyroxine level (Wistar rats [2]; P0, F1): NAE / NAE
- Uterus HP (with cervix) (Wistar rats [2]; P0, F1): NAE / NAE
- Uterus weight (with cervix) (Wistar rats [2]; P0, F1): NAE / NAE
- Vagina HP (Wistar rats [2]; P0, F1): NAE / NAE
- Vaginal smears (Wistar rats [2]; P0, F1): NAE / NAE
- Rank of oestrogen receptor activation among shorter-chained parabens (oestrogen receptors): the least
- Cytogenicity in mammalian cells classification (mammalian cells): Clastogenic with metabolic activation (OECD 473; 1987) [d]

SMILES: CCCOC(=O)c1ccc(O)cc1 [Propyl paraben, Propyl 4-hydroxybenzoate]
- Log Kow [3]: 2.8 (mean; OECD TG 107 and OECD TG 117)
- NOAEL, developmental toxicity (Wistar rats [4]): NOAEL: 1000 (OECD 414; v 2001) mg/kg body weight/day
- NOAEL, developmental toxicity (Wistar rats [4]; listed as propyl paraben): 1000 mg/kg body weight/day
- Gestation length (Wistar rats [4]; OECD TG 414): n.a. / NAE
- NOAEL: No. of foetal deaths; viable foetuses (Wistar rats [4]; OECD TG 414): 1000 mg/kg bw/day
- No. of implantations, corpora lutea (Wistar rats [4]; OECD TG 414): NAE / NAE
- No. of live births (Wistar rats [4]; OECD TG 414): NAE / NAE
- Postimplantation loss (Wistar rats [4]; OECD TG 414): NAE / NAE
- Pre-implantation loss (Wistar rats [4]; OECD TG 414): NAE / NAE
- Uterus weight (with cervix) (Wistar rats [4]; OECD TG 414): NAE / NAE
- Thyroid HP (Wistar rats [4]; dams): NAE / NAE (dams)
- Thyroid stimulating hormone level (Wistar rats [4]; dams): NAE / NAE (dams)
- Thyroid weight (Wistar rats [4]; dams): NAE / NAE (dams)
- Triiodothyronine / thyroxine level (Wistar rats [4]; dams): NAE / NAE (dams)
- Anogenital distance (Wistar rats [4]; foetus): NAE / NAE
- Foetal development (Wistar rats [4]; foetus): NAE / NAE
- Litter size (Wistar rats [4]; foetus): NAE / NAE
- No. of foetal deaths; viable foetuses (Wistar rats [4]; foetus): NAE / NAE
- Presence of anomalies (external, visceral, skeletal) (Wistar rats [4]; foetus): NAE / NAE
- Treatment-related effects in dams or pups (Wistar rats [4]; implantation throughout pregnancy): No treatment-related effects
- NOAEL, reproductive toxicity (Wistar rats [5]): NOAEL: 1000 (OECD 421; v 2016 & OECD 422 [b]) mg/kg body weight/day
- NOAEL, reproductive toxicity (Wistar rats [5]; listed as propyl paraben): 1000 mg/kg body weight/day
- Treatment-related effects in parental animals or pups (Wistar rats [5]; OECD TG 421): no treatment-related effects
- Accessory sex organs HP (Wistar rats [5]; P0, F1): n. a. / NAE
- Anogenital distance (Wistar rats [5]; P0, F1): n. a. / NAE
- Coagulating gland weight (Wistar rats [5]; P0, F1): n. a. / NAE
- Dystocia (Wistar rats [5]; P0, F1): n. a. / NAE
- Epididymis HP (Wistar rats [5]; P0, F1): n. a. / NAE
- Epididymis weight (Wistar rats [5]; P0, F1): n. a. / NAE
- Fertility (Wistar rats [5]; P0, F1): n. a. / NAE
- Foetal development (Wistar rats [5]; P0, F1): n. a. / NAE
- Gestation length (Wistar rats [5]; P0, F1): n. a. / NAE
- Litter size (Wistar rats [5]; P0, F1): n. a. / NAE
- Litter viability (Wistar rats [5]; P0, F1): n. a. / NAE
- Nipple development (Wistar rats [5]; P0, F1): n. a. / NAE
- No. of implantations, corpora lutea (Wistar rats [5]; P0, F1): n. a. / NAE
- No. of live births (Wistar rats [5]; P0, F1): n. a. / NAE
- Oestrus cyclicity (Wistar rats [5]; P0, F1): n. a. / NAE
- Ovary HP (Wistar rats [5]; P0, F1): n. a. / NAE
- Postimplantation loss (Wistar rats [5]; P0, F1): n. a. / NAE
- Pre-implantation loss (Wistar rats [5]; P0, F1): n. a. / NAE
- Presence of anomalies (external, visceral, skeletal) (Wistar rats [5]; P0, F1): n. a. / NAE
- Prostate HP (Wistar rats [5]; P0, F1): n. a. / NAE
- Prostate weight (Wistar rats [5]; P0, F1): n. a. / NAE
- Reproduction (Wistar rats [5]; P0, F1): n. a. / NAE
- Seminal vesicles weight (Wistar rats [5]; P0, F1): n. a. / NAE
- Testis HP (Wistar rats [5]; P0, F1): n. a. / NAE
- Testis weight (Wistar rats [5]; P0, F1): n. a. / NAE
- Thyroid stimulating hormone level (Wistar rats [5]; P0, F1): n. a. / NAE
- Time to mating (Wistar rats [5]; P0, F1): n. a. / NAE
- Triiodothyronine / thyroxine level (Wistar rats [5]; P0, F1): n. a. / NAE
- Vaginal smears (Wistar rats [5]; P0, F1): n. a. / NAE
- LD50 (rats [6]): > 5000 (OECD 401; 1982) mg/kg bw
- NOAEL (rats [7]): 1000 mg/kg bw/day

— article PMC7904550, “Application of grouping and read-across for the evaluation of parabens of different chain lengths with a particular focus on endocrine properties” (Archives of Toxicology, 2021)
